Experimental data taken from ChEMBL document CHEMBL3991601, “The target landscape of clinical kinase drugs” (Science, 2017).
Activity calls are given as the source filed them.

How the values were obtained:
[1] = molecular target: Mitogen-activated protein kinase 11 (Homo sapiens, UniProt Q15759)
[2] = molecular target: T1, Mitogen-activated protein kinase kinase kinase kinase 3 (Homo sapiens, UniProt Q8IVH8)
T1 sequence (Q8IVH8 whole entry): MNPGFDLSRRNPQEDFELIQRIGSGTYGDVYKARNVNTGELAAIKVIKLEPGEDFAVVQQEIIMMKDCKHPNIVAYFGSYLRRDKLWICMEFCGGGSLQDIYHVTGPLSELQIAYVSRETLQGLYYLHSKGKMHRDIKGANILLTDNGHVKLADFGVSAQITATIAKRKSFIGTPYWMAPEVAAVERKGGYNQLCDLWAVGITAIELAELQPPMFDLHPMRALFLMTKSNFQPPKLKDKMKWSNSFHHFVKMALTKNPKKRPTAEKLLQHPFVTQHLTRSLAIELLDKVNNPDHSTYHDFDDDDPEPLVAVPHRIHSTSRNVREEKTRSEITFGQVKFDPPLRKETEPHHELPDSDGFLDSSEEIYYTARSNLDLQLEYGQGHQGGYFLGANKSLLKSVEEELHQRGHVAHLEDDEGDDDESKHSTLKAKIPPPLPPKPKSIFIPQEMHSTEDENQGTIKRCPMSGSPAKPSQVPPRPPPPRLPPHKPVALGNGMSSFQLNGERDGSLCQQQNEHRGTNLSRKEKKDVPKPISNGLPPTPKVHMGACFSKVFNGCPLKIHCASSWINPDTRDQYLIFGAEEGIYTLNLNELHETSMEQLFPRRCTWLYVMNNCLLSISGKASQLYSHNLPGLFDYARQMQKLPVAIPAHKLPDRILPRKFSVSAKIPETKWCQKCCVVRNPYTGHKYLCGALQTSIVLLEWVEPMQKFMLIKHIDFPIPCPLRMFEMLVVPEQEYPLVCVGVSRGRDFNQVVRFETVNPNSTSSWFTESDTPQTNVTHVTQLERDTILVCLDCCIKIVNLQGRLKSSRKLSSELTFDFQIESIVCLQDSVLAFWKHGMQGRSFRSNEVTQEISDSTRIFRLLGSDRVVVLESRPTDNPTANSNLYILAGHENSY

[3] = molecular target: T2, Electron transfer flavoprotein subunit beta (Homo sapiens, UniProt P38117)
T2 sequence (P38117 whole entry): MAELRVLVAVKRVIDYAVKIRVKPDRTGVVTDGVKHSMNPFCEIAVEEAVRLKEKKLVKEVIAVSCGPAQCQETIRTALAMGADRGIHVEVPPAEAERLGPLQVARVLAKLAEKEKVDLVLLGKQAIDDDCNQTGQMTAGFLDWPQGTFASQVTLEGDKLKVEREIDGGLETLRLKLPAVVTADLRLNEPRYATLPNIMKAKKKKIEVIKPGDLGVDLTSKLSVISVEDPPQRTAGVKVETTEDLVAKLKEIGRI

[4] = molecular target: Adenosine kinase (Homo sapiens, UniProt P55263)
[5] = molecular target: T3, ADP/ATP translocase 3 (Homo sapiens, UniProt P12236)
T3 sequence (P12236 whole entry): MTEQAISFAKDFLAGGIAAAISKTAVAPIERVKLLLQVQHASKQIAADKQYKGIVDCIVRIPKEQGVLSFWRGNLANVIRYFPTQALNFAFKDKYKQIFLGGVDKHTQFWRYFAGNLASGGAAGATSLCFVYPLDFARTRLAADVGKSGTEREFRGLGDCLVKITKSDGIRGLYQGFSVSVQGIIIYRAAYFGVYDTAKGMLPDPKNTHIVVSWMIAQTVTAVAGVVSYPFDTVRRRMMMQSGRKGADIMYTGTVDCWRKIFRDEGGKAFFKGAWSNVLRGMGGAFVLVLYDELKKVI

[6] = molecular target: Serine/threonine-protein kinase MRCK gamma (Homo sapiens, UniProt Q6DT37)
[7] = molecular target: T4, Adenine phosphoribosyltransferase (Homo sapiens, UniProt P07741)
T4 sequence (P07741 whole entry): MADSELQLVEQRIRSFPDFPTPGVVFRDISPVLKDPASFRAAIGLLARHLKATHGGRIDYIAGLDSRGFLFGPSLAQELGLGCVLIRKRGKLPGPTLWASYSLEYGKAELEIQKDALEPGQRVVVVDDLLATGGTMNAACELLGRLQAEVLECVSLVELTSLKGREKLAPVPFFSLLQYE

[8] = molecular target: T5, NUAK family SNF1-like kinase 2 (Homo sapiens, UniProt Q9H093)
T5 sequence (Q9H093 whole entry): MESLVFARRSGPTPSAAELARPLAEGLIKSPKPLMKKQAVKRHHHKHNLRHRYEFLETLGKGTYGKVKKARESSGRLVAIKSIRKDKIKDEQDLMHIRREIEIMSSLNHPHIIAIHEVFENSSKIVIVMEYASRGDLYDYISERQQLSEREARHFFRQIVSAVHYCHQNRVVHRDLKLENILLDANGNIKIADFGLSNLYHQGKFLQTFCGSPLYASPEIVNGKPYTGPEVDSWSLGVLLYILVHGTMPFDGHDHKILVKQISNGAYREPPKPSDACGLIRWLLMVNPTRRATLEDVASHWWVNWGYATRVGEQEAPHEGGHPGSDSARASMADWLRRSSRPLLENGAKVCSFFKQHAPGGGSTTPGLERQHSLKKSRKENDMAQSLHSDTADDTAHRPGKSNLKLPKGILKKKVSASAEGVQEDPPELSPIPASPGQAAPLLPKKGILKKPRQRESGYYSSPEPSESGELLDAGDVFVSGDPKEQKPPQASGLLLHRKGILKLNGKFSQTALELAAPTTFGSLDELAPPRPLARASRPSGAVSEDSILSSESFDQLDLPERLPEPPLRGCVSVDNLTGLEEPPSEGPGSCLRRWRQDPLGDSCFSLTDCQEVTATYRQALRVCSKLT

[9] = molecular target: Serine/threonine-protein kinase SIK3 (Homo sapiens, UniProt Q9Y2K2)
[10] = molecular target: Ribosomal protein S6 kinase alpha-1 (Homo sapiens, UniProt Q15418)
[11] = molecular target: Inosine-5'-monophosphate dehydrogenase 2 (Homo sapiens, UniProt P12268)
[12] = molecular target: BMP-2-inducible protein kinase (Homo sapiens, UniProt Q9NSY1)
[13] = molecular target: LIM domain kinase 1 (Homo sapiens, UniProt P53667)
[14] = molecular target: Tyrosine-protein kinase Fer (Homo sapiens, UniProt P16591)
[15] = molecular target: Tyrosine-protein kinase Fyn (Homo sapiens, UniProt P06241)
Note: in the data inactive means no Kd found up to 30 µM.

Chain of Ribosomal protein S6 kinase alpha-1 (Q15418 whole entry): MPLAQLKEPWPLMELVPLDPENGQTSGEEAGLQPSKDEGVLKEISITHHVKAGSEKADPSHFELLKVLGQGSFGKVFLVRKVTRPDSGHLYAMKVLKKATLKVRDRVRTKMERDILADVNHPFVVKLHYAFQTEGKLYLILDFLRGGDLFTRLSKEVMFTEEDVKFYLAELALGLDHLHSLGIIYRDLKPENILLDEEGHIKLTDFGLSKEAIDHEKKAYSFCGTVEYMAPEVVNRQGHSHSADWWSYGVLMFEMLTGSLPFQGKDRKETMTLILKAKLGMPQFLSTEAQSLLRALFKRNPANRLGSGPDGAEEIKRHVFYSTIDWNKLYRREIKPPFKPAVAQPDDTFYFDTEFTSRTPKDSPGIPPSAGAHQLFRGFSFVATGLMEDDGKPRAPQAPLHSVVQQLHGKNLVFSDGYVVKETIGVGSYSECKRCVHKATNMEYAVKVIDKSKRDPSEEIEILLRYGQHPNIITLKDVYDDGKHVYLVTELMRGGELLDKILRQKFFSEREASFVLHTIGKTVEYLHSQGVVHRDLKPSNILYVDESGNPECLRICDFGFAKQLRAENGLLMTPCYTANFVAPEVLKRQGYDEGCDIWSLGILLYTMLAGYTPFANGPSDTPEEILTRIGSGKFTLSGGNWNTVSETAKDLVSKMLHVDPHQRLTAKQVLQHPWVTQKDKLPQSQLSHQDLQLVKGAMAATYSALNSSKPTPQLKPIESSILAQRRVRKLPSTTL
Chain of BMP-2-inducible protein kinase (Q9NSY1 whole entry, the tested form may be a part): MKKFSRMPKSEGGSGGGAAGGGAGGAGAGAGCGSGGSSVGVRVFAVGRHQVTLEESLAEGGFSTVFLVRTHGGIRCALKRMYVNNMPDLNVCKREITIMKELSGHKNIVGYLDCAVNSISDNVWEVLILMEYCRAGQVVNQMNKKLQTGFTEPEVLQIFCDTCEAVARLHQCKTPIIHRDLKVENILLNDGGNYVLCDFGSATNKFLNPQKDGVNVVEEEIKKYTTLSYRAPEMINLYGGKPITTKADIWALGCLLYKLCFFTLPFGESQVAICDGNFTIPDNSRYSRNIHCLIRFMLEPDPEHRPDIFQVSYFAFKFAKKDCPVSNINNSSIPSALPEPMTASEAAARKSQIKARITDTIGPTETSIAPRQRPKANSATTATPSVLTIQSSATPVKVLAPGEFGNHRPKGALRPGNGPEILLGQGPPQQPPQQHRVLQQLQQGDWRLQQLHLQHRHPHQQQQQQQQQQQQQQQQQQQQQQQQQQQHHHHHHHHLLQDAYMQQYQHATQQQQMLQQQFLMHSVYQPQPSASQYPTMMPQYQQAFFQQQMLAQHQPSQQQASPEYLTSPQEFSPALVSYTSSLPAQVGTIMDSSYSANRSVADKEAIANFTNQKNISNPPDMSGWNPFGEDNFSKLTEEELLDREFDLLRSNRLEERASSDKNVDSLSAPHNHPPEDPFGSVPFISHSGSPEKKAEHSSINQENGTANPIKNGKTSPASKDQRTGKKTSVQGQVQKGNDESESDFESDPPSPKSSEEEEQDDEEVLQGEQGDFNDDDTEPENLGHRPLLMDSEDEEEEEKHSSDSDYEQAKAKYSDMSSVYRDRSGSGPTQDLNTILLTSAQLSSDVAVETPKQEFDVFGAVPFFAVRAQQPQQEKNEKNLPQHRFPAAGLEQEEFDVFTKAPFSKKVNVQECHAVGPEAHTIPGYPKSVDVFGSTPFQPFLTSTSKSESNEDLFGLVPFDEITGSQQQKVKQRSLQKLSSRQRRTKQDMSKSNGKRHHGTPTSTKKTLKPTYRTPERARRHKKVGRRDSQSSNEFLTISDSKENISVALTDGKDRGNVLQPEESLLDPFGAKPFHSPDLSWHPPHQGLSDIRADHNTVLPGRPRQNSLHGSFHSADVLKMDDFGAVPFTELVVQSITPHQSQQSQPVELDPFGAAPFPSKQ
Chain of Mitogen-activated protein kinase 11 (Q15759 whole entry): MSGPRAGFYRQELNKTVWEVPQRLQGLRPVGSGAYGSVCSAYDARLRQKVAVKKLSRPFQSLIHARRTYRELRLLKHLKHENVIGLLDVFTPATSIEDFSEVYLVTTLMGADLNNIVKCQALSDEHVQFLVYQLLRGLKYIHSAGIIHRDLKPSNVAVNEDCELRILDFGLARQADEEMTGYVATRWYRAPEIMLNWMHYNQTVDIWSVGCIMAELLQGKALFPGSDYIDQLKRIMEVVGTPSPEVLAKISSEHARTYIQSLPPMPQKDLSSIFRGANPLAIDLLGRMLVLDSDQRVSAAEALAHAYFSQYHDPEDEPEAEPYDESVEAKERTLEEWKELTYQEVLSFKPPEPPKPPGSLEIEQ
Chain of Tyrosine-protein kinase Fer (P16591 whole entry): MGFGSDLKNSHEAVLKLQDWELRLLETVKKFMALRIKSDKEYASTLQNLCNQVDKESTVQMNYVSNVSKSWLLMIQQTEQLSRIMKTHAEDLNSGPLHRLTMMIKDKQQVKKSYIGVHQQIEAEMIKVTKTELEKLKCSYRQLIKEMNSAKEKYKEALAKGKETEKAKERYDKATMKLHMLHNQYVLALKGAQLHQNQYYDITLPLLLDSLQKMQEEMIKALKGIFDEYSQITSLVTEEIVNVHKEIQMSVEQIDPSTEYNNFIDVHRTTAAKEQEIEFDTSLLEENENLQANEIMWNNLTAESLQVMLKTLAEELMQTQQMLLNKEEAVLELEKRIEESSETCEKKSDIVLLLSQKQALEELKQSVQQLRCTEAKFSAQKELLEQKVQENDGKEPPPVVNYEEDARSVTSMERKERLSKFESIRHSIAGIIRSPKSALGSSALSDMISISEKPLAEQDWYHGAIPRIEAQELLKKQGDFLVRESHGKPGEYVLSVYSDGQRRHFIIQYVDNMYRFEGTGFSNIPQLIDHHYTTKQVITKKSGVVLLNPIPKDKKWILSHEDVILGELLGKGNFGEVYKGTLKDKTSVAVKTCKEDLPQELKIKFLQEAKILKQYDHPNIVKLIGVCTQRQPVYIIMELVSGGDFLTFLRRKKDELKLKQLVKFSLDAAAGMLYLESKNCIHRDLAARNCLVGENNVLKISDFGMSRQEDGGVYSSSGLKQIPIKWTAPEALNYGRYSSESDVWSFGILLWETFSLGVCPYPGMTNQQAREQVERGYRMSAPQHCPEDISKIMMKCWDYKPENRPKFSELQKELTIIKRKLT
Chain of Tyrosine-protein kinase Fyn (P06241 whole entry): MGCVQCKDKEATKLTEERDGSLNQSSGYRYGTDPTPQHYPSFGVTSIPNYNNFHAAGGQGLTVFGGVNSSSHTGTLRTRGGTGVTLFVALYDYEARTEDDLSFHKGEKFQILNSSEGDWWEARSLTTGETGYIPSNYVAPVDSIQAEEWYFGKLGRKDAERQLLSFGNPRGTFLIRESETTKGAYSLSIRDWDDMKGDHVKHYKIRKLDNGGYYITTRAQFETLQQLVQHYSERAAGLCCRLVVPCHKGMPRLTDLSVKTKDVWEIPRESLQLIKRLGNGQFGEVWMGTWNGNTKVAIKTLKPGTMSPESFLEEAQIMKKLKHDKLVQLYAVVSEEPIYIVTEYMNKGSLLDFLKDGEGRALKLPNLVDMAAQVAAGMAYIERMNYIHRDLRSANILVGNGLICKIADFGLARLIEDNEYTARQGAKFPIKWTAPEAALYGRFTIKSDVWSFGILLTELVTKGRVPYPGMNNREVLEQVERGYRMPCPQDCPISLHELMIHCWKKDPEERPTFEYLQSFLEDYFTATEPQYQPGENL
Chain of Serine/threonine-protein kinase SIK3 (Q9Y2K2 whole entry): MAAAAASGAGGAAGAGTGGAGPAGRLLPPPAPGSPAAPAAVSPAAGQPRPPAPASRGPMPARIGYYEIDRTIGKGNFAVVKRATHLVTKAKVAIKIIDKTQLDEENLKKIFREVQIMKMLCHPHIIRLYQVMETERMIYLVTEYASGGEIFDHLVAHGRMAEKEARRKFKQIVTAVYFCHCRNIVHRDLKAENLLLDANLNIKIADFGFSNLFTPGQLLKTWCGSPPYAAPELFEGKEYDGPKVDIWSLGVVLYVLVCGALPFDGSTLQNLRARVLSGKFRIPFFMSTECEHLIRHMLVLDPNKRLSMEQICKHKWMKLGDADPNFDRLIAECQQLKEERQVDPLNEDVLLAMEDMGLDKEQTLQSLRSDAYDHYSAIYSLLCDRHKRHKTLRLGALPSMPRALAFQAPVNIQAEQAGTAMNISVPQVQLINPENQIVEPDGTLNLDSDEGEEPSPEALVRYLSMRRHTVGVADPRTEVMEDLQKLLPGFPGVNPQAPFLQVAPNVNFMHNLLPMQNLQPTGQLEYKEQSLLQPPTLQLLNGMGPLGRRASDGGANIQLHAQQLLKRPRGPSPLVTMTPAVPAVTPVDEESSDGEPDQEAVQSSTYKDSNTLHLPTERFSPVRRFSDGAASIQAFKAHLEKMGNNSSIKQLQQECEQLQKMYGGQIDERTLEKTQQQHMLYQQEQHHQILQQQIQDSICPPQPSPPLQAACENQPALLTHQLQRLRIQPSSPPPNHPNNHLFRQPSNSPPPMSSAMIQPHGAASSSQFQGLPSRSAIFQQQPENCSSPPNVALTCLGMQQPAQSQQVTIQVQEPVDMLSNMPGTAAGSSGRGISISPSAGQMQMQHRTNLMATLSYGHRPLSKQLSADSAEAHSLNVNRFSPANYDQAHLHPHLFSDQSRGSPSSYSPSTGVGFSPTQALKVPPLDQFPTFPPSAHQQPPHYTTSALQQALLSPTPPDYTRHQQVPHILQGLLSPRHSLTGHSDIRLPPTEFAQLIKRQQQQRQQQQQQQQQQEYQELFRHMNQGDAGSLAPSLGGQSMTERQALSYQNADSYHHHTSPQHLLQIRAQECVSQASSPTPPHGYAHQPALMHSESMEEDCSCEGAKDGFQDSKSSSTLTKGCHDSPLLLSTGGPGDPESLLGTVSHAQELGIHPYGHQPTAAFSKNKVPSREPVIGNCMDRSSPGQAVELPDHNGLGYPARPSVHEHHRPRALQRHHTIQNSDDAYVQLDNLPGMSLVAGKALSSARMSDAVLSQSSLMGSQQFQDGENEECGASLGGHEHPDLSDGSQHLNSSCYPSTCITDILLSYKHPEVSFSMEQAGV

Row | Kd [3] | Kd [4] | Kd [5] | Kd [7] | Kd [11] | Kd [12] | SMILES | Kd [1] | Kd [2] | Kd [6] | Kd [8] | Kd [9] | Kd [10] | Kd [13] | Kd [14] | Kd [15]
1 | > 30 µM (inactive) | > 30 µM (inactive) | > 30 µM (inactive) | > 30 µM (inactive) | > 30 µM (inactive) | > 30 µM (inactive) | Cn1c(=O)n(-c2ccc(C(C)(C)C#N)cc2)c2c3cc(-c4cnc5ccccc5c4)ccc3ncc21 [DACTOLISIB] | > 30 µM (inactive) | > 30 µM (inactive) | > 30 µM (inactive) | > 30 µM (inactive) | > 30 µM (inactive) | > 30 µM (inactive) | – | > 30 µM (inactive) | –
2 | > 30 µM (inactive) | > 30 µM (inactive) | > 30 µM (inactive) | > 30 µM (inactive) | > 30 µM (inactive) | – | COc1cc2c(Oc3ccc4[nH]c(C)cc4c3F)ncnc2cc1OCCCN1CCCC1 [CEDIRANIB] | – | – | – | – | – | – | – | – | > 30 µM (inactive)
3 | > 30 µM (inactive) | > 30 µM (inactive) | > 30 µM (inactive) | > 30 µM (inactive) | > 30 µM (inactive) | – | C[C@@]1(C(=O)Nc2ccc(F)nc2)CCCN1c1nc(Nc2cc(C3CC3)n[nH]2)c2cccn2n1 [BMS-754807] | – | – | – | – | – | – | – | – | –
4 | > 30 µM (inactive) | > 30 µM (inactive) | > 30 µM (inactive) | > 30 µM (inactive) | > 30 µM (inactive) | – | CC1(C)CNc2cc(NC(=O)c3cccnc3NCc3ccncc3)ccc21 [MOTESANIB] | – | – | – | – | – | – | – | – | –
5 | > 30 µM (inactive) | > 30 µM (inactive) | > 30 µM (inactive) | > 30 µM (inactive) | > 30 µM (inactive) | > 30 µM (inactive) | CCN(CCCOc1ccc2c(Nc3cc(CC(=O)Nc4cccc(F)c4)n[nH]3)ncnc2c1)CCOP(=O)(O)O [BARASERTIB] | > 30 µM (inactive) | > 30 µM (inactive) | > 30 µM (inactive) | > 30 µM (inactive) | > 30 µM (inactive) | > 30 µM (inactive) | – | > 30 µM (inactive) | –

Further lines, the compound ahead of its results:

Row | SMILES | Kd [3] | Kd [4] | Kd [5] | Kd [7] | Kd [11] | Kd [12] | Kd [1] | Kd [2] | Kd [6] | Kd [8] | Kd [9] | Kd [10] | Kd [13] | Kd [14] | Kd [15]
6 | CN(c1ncccc1CNc1nc(Nc2ccc3c(c2)CC(=O)N3)ncc1C(F)(F)F)S(C)(=O)=O [PF-00562271] | > 30 µM (inactive) | > 30 µM (inactive) | > 30 µM (inactive) | > 30 µM (inactive) | > 30 µM (inactive) | – | > 30 µM (inactive) | > 30 µM (inactive) | > 30 µM (inactive) | > 30 µM (inactive) | > 30 µM (inactive) | > 30 µM (inactive) | – | – | –
7 | C[C@]1(O)C[C@@H](c2nc(-c3ccc4ccc(-c5ccccc5)nc4c3)c3c(N)nccn32)C1 [LINSITINIB] | > 30 µM (inactive) | > 30 µM (inactive) | > 30 µM (inactive) | – | > 30 µM (inactive) | > 30 µM (inactive) | 0.01 µM | 15.4 µM (active) | > 30 µM (inactive) | > 30 µM (inactive) | > 30 µM (inactive) | > 30 µM (inactive) | > 30 µM (inactive) | – | –
8 | O[C@H]1CC[C@H](Nc2ncc3nc(Nc4c(F)cc(F)cc4F)n([C@H]4CCOC4)c3n2)CC1 [TANZISERTIB] | – | > 30 µM (inactive) | > 30 µM (inactive) | > 30 µM (inactive) | – | > 30 µM (inactive) | > 30 µM (inactive) | > 30 µM (inactive) | > 30 µM (inactive) | > 30 µM (inactive) | 2.98 µM (active) | > 30 µM (inactive) | 2.17 µM (active) | > 30 µM (inactive) | > 30 µM (inactive)
9 | C=CCn1c(=O)c2cnc(Nc3ccc(N4CCN(C)CC4)cc3)nc2n1-c1cccc(C(C)(C)O)n1 [ADAVOSERTIB] | > 30 µM (inactive) | 0.013 µM (active) | > 30 µM (inactive) | > 30 µM (inactive) | > 30 µM (inactive) | > 30 µM (inactive) | > 30 µM (inactive) | > 30 µM (inactive) | > 30 µM (inactive) | > 30 µM (inactive) | > 30 µM (inactive) | > 30 µM (inactive) | – | > 30 µM (inactive) | –
10 | COc1cc2c(N3CCN(C(=O)Nc4ccc(OC(C)C)cc4)CC3)ncnc2cc1OCCCN1CCCCC1 [TANDUTINIB] | > 30 µM (inactive) | > 30 µM (inactive) | > 30 µM (inactive) | > 30 µM (inactive) | – | – | – | – | – | – | – | – | – | – | –
11 | CN(C)C/C=C/C(=O)Nc1cc2c(Nc3ccc(F)c(Cl)c3)ncnc2cc1O[C@H]1CCOC1 [AFATINIB] | > 30 µM (inactive) | 3.49 µM (active) | > 30 µM (inactive) | > 30 µM (inactive) | > 30 µM (inactive) | – | – | – | – | – | – | – | – | – | –
12 | N#CCNC(=O)c1ccc(-c2ccnc(Nc3ccc(N4CCOCC4)cc3)n2)cc1 [MOMELOTINIB] | > 30 µM (inactive) | > 30 µM (inactive) | > 30 µM (inactive) | > 30 µM (inactive) | > 30 µM (inactive) | – | – | – | > 30 µM (inactive) | > 30 µM (inactive) | 0.859 µM (active) | – | > 30 µM (inactive) | > 30 µM (inactive) | > 30 µM (inactive)
13 | Cn1cnc2c(F)c(Nc3ccc(Br)cc3Cl)c(C(=O)NOCCO)cc21 [SELUMETINIB] | > 30 µM (inactive) | > 30 µM (inactive) | > 30 µM (inactive) | > 30 µM (inactive) | > 30 µM (inactive) | – | – | – | – | – | – | – | – | – | –
14 | O=S(=O)(c1cccc2cnccc12)N1CCCNCC1 [FASUDIL] | > 30 µM (inactive) | > 30 µM (inactive) | > 30 µM (inactive) | > 30 µM (inactive) | > 30 µM (inactive) | – | > 30 µM (inactive) | > 30 µM (inactive) | > 30 µM (inactive) | > 30 µM (inactive) | > 30 µM (inactive) | > 30 µM (inactive) | – | > 30 µM (inactive) | > 30 µM (inactive)
